Test results reported in US20260091015A1, “TREATING IRON DEFICIENCY WITH FERRIC CARBOXYMALTOSE” (PHARMACOSMOS HOLDING A/S, priority 2018, published 2026).
Where two headings read alike, the source gives them in different places.

Experiments:
[1] = cited from earlier work
[2] = test system: human C-terminal FGF23; test: C-terminal FGF23 (cFGF23) over time, two-site ELISA, trials IDA-04/IDA-05; format: in vivo
Experimental: The trial was a randomized, open-label, comparative trial. Subjects with Iron Deficiency Anaemia (IDA) were randomized 1:1 to one treatment course of one of the following treatments: • Group A: iron isomaltoside 1000 (Monofer®, Pharmacosmos, Holbok, Denmark, termed iron isomaltoside in the following), 1000 mg at baseline • Group B: ferric carboxymaltose (Ferinject®/Injectafer®, Vifor Inc, Switzerland), 750 mg at baseline and day 7, cumulative dose: 1500 mg […]
(§1) The following safety laboratory assessments were analysed: • S-phosphate: inorganic phosphorous forms an ammonium phosphomolybdate complex having the formula (NH4)3[PO4](MoO3)12 with ammonium molybdate in the presence of sulfuric acid. The complex was determined photometrically in the ultraviolet region (340 nm) of the spectrum using the Roche Modular and Cobas Analyzer. • iFGF23 and cFGF23: the human intact FGF23 was measured by the 2nd generation Elisa kit manufactured by Immonotropics, Inc, San Clemente, CA. […] The human C-terminal FGF23 was measured by the Elisa kit manufactured by Immonotropics, Inc, San Clemente, CA. […] After evaporation under nitrogen, the residue was reconstituted and analyzed using Liquid Chromatography (LC) with Tandem Mass Spectrometric detection (MS/MS). […]

[3] = test system: intact FGF23; details: women with IDA secondary to heavy uterine bleeding; Wolf et al., 2013; cited from earlier work
[4] = Incidence of hypophosphatemia / s-phosphate in randomized open-label trials IDA-04 and IDA-05; format: in vivo, human
Experimental: Two prospective randomized, open-label, comparative trials were performed comparing the incidence of hypophosphatemia in relation to treatment with iron isomaltoside (“IIM”, tradename Monofer®, Monoferric®) and ferric carboxymaltose (“FCM”, trade name Injectafer, Ferinject) in adult human subjects with iron deficiency anaemia.
The trial was a randomized, open-label, comparative trial. Subjects with Iron Deficiency Anaemia (IDA) were randomized 1:1 to one treatment course of one of the following treatments: • Group A: iron isomaltoside 1000 (Monofer®, Pharmacosmos, Holbok, Denmark, termed iron isomaltoside in the following), 1000 mg at baseline • Group B: ferric carboxymaltose (Ferinject®/Injectafer®, Vifor Inc, Switzerland), 750 mg at baseline and day 7, cumulative dose: 1500 mg
The primary endpoint was the incidence of hypophosphatemia (defined as s-phosphate <2 mg/dL) at any time from baseline to day 35. […]
as §1

[5] = compared to iron dextran, iron sucrose and iron isomaltoside 1000
[6] = FCM 750 mg at baseline and day 7 vs JIM 1000 mg at baseline, subjects with IDA, baseline to day 35

ferric carboxymaltose [FCM]
risk for iFGF23-mediated reduction of serum phosphate levels and development of hypophosphatemia ([1]; clinical trials and case reports, Wolf et al., 2013): highest risk
time to minimum serum phosphorous values ([1]; clinical trials, EU SmPC): approximately 2 weeks
prevalence of hypophosphatemia [1, 5]: higher prevalence
reduction in serum phosphate [1, 5]: larger and longer reduction
time until serum phosphorous returned to within the range of baseline ([1]; following treatment, clinical trials, EU SmPC): 4 to 12 weeks
serum phosphate ([1]; women with IDA secondary to heavy uterine bleeding, Wolf et al., 2013): reduced
cFGF23 on the first administration ([2]; initially high due to underlying iron deficiency anemia): dropped sharply
cFGF23 on the second administration ([2]; second administration (day 7)): increased
iFGF23 levels [3]: temporarily increased
rate of hypophosphatemia, moderate to severe form with serum phosphate below 2 mg/dL [4, 6]: significantly higher
rate of hypophosphatemia, severe form of serum phosphate at or below 1.0 mg/dL [4, 6]: significantly higher
serum phosphate ([4]; after FCM treatment): decrease
